Tests used:
[1] = biological target: Angiotensin-converting enzyme (Homo sapiens) (UniProt P12821); test: ACE(HU_AMTCH400) Eurofins SafetyScreen44 (BI)
[2] = biological target: Mu-type opioid receptor (Homo sapiens) (UniProt P35372); test: MU/H Eurofins SafetyScreen44 (BI); details: Compound concentration 10.0 uM
[3] = biological target: T1, 5-hydroxytryptamine receptor 3A (Homo sapiens) (UniProt P46098); test: 5HT3/H Eurofins SafetyScreen44 (BI); details: Compound concentration 10.0 uM
T1 sequence (whole entry): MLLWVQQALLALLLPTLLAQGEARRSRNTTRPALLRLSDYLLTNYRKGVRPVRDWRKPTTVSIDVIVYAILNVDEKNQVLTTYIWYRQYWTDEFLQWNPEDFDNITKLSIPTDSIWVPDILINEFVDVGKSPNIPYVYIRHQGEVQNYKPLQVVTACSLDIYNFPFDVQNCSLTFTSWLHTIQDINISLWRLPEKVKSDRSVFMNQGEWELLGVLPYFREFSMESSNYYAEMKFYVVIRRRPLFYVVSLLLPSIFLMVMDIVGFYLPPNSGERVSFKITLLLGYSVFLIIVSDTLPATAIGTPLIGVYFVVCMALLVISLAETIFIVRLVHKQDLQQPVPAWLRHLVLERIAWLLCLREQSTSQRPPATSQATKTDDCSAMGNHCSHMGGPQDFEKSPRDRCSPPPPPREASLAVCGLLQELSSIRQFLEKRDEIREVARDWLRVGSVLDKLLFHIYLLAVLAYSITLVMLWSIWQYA

[4] = biological target: 5-hydroxytryptamine receptor 2A (Homo sapiens) (UniProt P28223); test: 5HT2AH_AGON Eurofins SafetyScreen44 (BI); details: filed as agonist, Compound concentration 10.0 uM
[5] = biological target: Histamine H1 receptor (Homo sapiens) (UniProt P35367); test: H1/PYRIL/HS Eurofins SafetyScreen44 (BI); details: Compound concentration 10.0 uM
[6] = biological target: Delta-type opioid receptor (Homo sapiens) (UniProt P41143); test: DELTA2/H Eurofins SafetyScreen44 (BI); details: Compound concentration 10.0 uM
[7] = biological target: T2, Muscarinic acetylcholine receptor M2 (Homo sapiens) (UniProt P08172); test: M2/H Eurofins SafetyScreen44 (BI); details: filed as antagonist, Compound concentration 10.0 uM
T2 sequence (whole entry): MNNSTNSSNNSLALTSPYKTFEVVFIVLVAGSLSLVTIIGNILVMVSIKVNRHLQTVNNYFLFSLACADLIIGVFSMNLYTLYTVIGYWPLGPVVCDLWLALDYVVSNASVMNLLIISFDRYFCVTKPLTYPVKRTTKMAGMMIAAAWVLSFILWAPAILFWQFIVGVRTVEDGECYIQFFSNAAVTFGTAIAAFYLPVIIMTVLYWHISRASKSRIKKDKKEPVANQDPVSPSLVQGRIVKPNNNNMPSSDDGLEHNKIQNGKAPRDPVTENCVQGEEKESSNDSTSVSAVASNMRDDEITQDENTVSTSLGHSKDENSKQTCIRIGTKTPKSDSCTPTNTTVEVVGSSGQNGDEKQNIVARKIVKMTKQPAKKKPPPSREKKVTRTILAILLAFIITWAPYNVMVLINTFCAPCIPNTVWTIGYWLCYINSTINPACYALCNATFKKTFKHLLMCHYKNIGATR

[8] = biological target: Prostaglandin G/H synthase 2 (Homo sapiens) (UniProt P35354); test: COX-2 Eurofins SafetyScreen44 (BI); details: Compound concentration 10.0 uM
[9] = biological target: Muscarinic acetylcholine receptor M3 (Homo sapiens) (UniProt P20309); test: M3/H Eurofins SafetyScreen44 (BI); details: Compound concentration 10.0 uM
[10] = biological target: Sodium-dependent serotonin transporter (Homo sapiens) (UniProt P31645); test: SLC6A4/H Eurofins SafetyScreen44 (BI); details: filed as antagonist, Compound concentration 10.0 uM
hERG (KCNH2) = hERG (KCNH2) (Homo sapiens, UniProt Q12809); test: HERG_DOFETILIDE Eurofins SafetyScreen44 (BI); details: probe dofetilide, compound concentration 10 uM, read-out: % Ctrl
[11] = biological target: T3, Alpha-1A adrenergic receptor (Homo sapiens) (UniProt P35348); test: ALPHA1AH_ANTAG Eurofins SafetyScreen44 (BI); details: filed as antagonist, Compound concentration 10.0 uM
T3 sequence (whole entry): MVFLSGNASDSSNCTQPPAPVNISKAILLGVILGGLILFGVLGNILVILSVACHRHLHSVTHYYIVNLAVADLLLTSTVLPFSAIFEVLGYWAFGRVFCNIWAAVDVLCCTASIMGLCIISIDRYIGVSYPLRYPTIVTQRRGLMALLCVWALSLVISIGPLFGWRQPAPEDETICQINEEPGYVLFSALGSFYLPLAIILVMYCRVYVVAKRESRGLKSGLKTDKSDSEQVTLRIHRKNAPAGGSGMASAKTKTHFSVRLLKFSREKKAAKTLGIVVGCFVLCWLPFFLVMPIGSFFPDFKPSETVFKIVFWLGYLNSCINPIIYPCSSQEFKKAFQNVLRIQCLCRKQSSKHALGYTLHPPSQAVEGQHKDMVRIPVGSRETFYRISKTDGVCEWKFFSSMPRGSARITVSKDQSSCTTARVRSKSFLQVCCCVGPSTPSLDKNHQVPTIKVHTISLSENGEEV

[12] = biological target: Prostaglandin G/H synthase 1 (Homo sapiens) (UniProt P23219); test: COX-1 Eurofins SafetyScreen44 (BI); details: Compound concentration 10.0 uM
[13] = biological target: T4, 5-hydroxytryptamine receptor 1A (Homo sapiens) (UniProt P08908); test: 5HT1A/H Eurofins SafetyScreen44 (BI); details: Compound concentration 10.0 uM
T4 sequence (whole entry): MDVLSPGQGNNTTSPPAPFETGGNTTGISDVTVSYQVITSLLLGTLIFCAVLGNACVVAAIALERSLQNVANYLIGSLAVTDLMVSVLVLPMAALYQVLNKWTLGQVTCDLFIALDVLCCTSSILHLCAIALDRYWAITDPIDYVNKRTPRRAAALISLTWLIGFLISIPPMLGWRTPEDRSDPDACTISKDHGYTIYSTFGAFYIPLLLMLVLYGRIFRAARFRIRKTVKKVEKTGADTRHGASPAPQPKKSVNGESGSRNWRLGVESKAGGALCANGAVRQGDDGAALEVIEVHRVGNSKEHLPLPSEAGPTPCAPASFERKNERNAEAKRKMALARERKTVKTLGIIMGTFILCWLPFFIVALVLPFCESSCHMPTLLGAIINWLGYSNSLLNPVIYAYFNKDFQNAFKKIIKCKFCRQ

[14] = biological target: Sigma non-opioid intracellular receptor 1 (Homo sapiens) (UniProt Q99720); details: Compound concentration 10.0 uM
[15] = biological target: D(4) dopamine receptor (Homo sapiens) (UniProt P21917); details: Compound concentration 10.0 uM
[16] = biological target: 5-hydroxytryptamine receptor 2B (Homo sapiens) (UniProt P41595); details: Compound concentration 10.0 uM
[17] = biological target: 5-hydroxytryptamine receptor 2C (Homo sapiens) (UniProt P28335); details: Compound concentration 10.0 uM
Sequence of 5-hydroxytryptamine receptor 2C (Homo sapiens) (P28335 whole entry): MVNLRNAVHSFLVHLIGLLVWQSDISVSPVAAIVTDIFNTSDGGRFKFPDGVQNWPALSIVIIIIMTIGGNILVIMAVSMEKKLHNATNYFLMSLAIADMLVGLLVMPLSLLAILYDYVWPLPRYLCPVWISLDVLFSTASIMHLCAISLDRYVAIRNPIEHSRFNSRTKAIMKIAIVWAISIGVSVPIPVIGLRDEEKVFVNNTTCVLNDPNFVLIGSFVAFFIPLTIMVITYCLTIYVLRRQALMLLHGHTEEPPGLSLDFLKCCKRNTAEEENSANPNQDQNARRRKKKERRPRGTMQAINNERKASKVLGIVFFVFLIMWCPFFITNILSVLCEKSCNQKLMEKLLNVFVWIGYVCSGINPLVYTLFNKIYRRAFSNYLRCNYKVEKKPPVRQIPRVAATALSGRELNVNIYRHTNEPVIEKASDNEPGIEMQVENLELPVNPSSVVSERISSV

Sequence of Angiotensin-converting enzyme (Homo sapiens) (P12821 whole entry): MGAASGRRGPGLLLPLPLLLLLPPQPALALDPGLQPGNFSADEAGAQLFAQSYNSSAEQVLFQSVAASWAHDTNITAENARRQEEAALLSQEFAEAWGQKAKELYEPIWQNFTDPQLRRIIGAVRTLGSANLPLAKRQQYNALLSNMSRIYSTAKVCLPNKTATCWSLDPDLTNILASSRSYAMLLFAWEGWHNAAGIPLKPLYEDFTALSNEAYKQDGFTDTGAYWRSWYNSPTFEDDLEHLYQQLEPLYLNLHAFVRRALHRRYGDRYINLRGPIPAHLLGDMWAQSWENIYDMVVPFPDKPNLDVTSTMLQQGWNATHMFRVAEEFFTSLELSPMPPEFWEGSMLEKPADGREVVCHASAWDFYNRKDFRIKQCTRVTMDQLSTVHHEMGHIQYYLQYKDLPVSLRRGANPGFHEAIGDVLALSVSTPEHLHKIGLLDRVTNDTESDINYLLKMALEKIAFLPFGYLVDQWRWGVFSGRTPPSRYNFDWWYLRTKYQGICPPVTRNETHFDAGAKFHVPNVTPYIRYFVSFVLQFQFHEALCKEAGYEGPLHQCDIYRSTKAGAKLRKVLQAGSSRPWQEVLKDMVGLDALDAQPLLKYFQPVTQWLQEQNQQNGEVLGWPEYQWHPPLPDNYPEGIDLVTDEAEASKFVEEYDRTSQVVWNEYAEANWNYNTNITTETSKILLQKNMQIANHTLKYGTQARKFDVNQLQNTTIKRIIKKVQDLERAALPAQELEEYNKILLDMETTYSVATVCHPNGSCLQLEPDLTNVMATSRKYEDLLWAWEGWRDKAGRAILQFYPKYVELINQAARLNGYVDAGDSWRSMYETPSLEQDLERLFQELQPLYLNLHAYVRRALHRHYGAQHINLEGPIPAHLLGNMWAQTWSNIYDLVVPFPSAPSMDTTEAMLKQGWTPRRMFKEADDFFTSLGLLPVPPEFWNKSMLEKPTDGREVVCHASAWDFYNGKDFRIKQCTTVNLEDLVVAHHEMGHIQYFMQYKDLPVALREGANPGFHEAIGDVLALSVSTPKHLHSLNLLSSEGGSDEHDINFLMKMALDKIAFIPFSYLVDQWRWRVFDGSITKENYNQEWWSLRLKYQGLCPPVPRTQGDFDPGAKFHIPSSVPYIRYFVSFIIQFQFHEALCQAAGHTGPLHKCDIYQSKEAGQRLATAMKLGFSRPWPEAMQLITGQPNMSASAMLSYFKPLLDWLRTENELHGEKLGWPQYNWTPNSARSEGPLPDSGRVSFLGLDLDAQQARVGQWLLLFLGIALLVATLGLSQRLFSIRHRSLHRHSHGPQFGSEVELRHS
Sequence of 5-hydroxytryptamine receptor 2B (Homo sapiens) (P41595 whole entry): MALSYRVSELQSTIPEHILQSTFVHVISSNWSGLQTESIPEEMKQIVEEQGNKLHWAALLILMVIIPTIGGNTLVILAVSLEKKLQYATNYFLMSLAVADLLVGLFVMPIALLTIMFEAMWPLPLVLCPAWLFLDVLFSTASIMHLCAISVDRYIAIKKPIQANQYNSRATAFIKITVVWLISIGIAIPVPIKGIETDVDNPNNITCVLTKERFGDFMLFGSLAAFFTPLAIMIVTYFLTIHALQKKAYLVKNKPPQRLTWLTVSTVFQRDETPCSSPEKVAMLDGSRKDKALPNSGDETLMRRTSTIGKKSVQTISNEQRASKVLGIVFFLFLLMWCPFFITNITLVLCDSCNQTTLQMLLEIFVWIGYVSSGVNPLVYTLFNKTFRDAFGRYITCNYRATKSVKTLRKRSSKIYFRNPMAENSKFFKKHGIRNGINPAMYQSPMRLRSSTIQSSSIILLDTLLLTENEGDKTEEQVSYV
Sequence of D(4) dopamine receptor (Homo sapiens) (P21917 whole entry): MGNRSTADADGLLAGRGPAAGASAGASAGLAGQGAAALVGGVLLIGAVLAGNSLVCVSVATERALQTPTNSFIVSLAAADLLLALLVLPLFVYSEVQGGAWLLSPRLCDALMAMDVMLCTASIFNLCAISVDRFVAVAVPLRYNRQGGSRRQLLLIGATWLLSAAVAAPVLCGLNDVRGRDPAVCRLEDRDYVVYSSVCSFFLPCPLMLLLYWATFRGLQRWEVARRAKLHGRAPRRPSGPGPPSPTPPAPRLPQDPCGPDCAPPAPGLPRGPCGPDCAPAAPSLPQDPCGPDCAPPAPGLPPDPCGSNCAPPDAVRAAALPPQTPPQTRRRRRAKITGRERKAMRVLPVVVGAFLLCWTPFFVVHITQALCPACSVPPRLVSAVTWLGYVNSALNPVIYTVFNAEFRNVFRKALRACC
Sequence of Sigma non-opioid intracellular receptor 1 (Homo sapiens) (Q99720 whole entry): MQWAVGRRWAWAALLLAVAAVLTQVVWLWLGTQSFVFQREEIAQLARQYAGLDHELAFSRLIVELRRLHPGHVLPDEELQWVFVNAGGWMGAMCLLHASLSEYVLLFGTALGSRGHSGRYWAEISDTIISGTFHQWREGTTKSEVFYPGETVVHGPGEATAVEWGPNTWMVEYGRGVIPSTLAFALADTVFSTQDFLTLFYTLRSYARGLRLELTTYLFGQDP
Sequence of Sodium-dependent serotonin transporter (Homo sapiens) (P31645 whole entry, looked up): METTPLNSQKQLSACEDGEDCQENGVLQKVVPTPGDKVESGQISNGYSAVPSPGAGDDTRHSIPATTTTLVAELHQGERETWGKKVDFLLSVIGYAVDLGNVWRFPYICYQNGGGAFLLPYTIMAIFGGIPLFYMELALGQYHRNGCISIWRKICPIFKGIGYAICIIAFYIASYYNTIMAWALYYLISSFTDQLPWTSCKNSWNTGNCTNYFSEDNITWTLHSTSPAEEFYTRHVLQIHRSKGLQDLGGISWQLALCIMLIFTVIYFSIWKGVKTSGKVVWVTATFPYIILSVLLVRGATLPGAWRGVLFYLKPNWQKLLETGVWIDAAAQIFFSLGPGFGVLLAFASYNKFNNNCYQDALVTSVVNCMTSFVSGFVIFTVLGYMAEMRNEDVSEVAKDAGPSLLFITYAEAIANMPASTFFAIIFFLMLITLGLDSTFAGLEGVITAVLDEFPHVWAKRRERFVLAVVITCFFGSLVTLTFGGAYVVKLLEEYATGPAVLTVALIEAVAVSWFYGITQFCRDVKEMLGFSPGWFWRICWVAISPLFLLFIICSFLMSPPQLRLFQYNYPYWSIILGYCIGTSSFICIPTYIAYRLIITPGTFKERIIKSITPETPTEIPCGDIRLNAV
Sequence of hERG (KCNH2) (Q12809 whole entry): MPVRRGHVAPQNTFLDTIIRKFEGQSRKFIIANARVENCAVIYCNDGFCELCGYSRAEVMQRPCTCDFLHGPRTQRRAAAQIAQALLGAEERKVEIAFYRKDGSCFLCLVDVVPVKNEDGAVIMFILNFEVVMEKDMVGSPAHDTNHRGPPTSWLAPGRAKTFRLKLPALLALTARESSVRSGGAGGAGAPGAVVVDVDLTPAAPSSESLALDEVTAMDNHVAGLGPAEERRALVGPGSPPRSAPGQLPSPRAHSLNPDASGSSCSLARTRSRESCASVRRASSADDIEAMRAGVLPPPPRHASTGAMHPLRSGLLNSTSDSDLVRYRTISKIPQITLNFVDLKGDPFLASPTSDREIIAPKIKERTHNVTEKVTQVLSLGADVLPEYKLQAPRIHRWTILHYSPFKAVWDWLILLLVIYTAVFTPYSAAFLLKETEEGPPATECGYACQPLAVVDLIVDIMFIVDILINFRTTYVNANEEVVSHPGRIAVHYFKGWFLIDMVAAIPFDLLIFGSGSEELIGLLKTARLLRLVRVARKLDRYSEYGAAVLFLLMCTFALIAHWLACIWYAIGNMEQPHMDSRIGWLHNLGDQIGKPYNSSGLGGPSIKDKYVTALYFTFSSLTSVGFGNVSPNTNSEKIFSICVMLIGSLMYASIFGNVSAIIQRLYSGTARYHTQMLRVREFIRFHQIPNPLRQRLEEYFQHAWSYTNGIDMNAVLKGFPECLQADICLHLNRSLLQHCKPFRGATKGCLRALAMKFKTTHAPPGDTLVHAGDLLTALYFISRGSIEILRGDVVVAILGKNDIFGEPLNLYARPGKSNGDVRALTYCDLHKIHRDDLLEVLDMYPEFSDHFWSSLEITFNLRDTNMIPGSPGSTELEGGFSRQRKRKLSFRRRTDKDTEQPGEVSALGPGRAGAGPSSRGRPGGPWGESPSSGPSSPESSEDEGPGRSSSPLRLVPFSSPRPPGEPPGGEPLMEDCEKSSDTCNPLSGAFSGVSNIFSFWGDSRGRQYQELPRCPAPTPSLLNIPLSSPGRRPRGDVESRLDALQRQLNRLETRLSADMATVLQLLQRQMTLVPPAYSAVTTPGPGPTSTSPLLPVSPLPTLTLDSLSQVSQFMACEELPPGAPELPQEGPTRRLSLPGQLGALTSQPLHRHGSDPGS
Sequence of Delta-type opioid receptor (Homo sapiens) (P41143 whole entry): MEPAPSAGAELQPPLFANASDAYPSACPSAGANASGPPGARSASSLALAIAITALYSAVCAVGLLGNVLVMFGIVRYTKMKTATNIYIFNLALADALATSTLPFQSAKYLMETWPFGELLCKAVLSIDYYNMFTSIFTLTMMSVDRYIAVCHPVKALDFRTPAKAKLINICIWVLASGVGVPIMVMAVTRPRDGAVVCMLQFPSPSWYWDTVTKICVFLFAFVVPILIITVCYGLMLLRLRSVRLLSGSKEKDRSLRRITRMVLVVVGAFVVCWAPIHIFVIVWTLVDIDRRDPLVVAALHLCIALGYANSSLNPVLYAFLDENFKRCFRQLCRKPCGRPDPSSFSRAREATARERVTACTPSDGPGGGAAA

| Compound | residual activity ([1]; Compound concentration 10.0 uM) | residual activity [2] | residual activity [3] | residual activity [4] | residual activity [5] | residual activity [6] | residual activity [7] | residual activity [8] | residual activity [9] | residual activity [10] | activity at 10 µM (hERG (KCNH2)) | residual activity [11] | residual activity [12] | residual activity [13] | residual activity ([1]; Compound concentration 30.0 uM) | residual activity ([1]; Compound concentration 100.0 uM) | inhibition [14] | inhibition [15] | inhibition [16] | inhibition [17] |
| --- | --- | --- | --- | --- | --- | --- | --- | --- | --- | --- | --- | --- | --- | --- | --- | --- | --- | --- | --- | --- |
| CCn1c(CNC(=O)c2ncc(C)nc2N)[n+](CC)c2ccc(C(=O)N(C)CN(C)C)cc21 | 39% | 95% | 99% | 91% | 94% | 97% | 41% | 82% | 35% | 31% | 81% (not active) | 63% | 84% | 111% |  |  |  |  |  |  |
| CCn1c(CNC(=O)c2nc(Cl)cnc2N)[n+](CC)c2ccc(C(=O)N(C)CCN(C)C)cc21 | 55.6% | 95% | 101% | 97% | 101% | 95% | 36% |  | 20% | 97% | 91% (not active) | 45% |  | 107% | 31% | 24% | 20% | 7.07% | 7.03% | 1.01% |
